Assay results reported in patent US11053204B2, “Pyrimidinyloxy benzene derivatives as herbicides” (FMC Corporation, priority 2015, dated 2021).

Experiments:
Assay type in all cases: in vivo
[1] = tested on: barnyardgrass (Echinochloa crus-galli); assay: Test A preemergence, visual injury rating; conditions: Echinochloa crus-galli, pre-emergence, 240 h, 0 to 100 scale (0 no effect, 100 complete control), read-out: Barnyardgrass plant response rating
How it was run: (§1)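 Visual injury scored 0–100 (100 = complete control) against untreated controls about 10 days after treatment in a greenhouse. Test chemicals, formulated with surfactant in non-phytotoxic solvent, were sprayed on soil preemergence or on 2-10 cm, one- to two-leaf plants postemergence.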

kochia (Kochia scoparia) [2] = assay: Test A preemergence, visual injury rating; conditions: Bassia scoparia, pre-emergence, 240 h, 0 to 100 scale (0 no effect, 100 complete control), read-out: Kochia plant response rating
How it was run: as §1

[3] = tested on: barnyardgrass (Echinochloa crus-galli); assay: Test C postemergence, plant response rating; conditions: Echinochloa crus-galli, post-emergence
How it was run: (§2)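 After sowing in loam–sand blend or silt loam, pots were sprayed preemergence; separately grown 1- to 4-leaf plants were sprayed postemergence. Following 13 to 15 d under greenhouse conditions, injury was rated visually on a 0 to 100 scale.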

[4] = tested on: blackgrass (Alopecurus myosuroides); assay: Test C postemergence, plant response rating; conditions: Alopecurus myosuroides, post-emergence
How it was run: as §2

[5] = tested on: chickweed (common chickweed, Stellaria media); assay: Test C postemergence, plant response rating; conditions: Stellaria media, post-emergence
How it was run: as §2

corn (Zea mays) = assay: Test C postemergence, plant response rating; conditions: Zea mays, post-emergence
How it was run: as §2

[6] = tested on: crabgrass, large (large crabgrass, Digitaria sanguinalis); assay: Test C postemergence, plant response rating; conditions: Digitaria sanguinalis, post-emergence
How it was run: as §2

[7] = tested on: foxtail, giant (giant foxtail, Setaria faberii); assay: Test C postemergence, plant response rating; conditions: Setaria faberi, post-emergence
How it was run: as §2

kochia (Kochia scoparia) [8] = assay: Test C postemergence, plant response rating; conditions: Bassia scoparia, post-emergence
How it was run: as §2

[9] = tested on: lambsquarters (Chenopodium album); assay: Test C postemergence, plant response rating; conditions: Chenopodium album, post-emergence
How it was run: as §2

[10] = tested on: morningglory (Ipomoea coccinea); assay: Test C postemergence, plant response rating; conditions: Ipomoea, post-emergence
How it was run: as §2

[11] = tested on: nutsedge, yellow (yellow nutsedge, Cyperus esculentus); assay: Test C postemergence, plant response rating; conditions: Cyperus, post-emergence
How it was run: as §2

[12] = tested on: oat, wild (wild oat Avena fatua); assay: Test C postemergence, plant response rating; conditions: Avena fatua, post-emergence
How it was run: as §2

[13] = tested on: oilseed rape (Brassica napus); assay: Test C postemergence, plant response rating; conditions: Brassica napus, post-emergence
How it was run: as §2

[14] = tested on: ryegrass, Italian (Italian ryegrass, Lolium multiflorum); assay: Test C postemergence, plant response rating; conditions: Lolium multiflorum, post-emergence
How it was run: as §2

soybean (Glycine max) = assay: Test C postemergence, plant response rating; conditions: Glycine max, post-emergence
How it was run: as §2

[15] = tested on: wheat (winter wheat, Triticum aestivum); assay: Test C postemergence, plant response rating; conditions: Triticum aestivum, post-emergence
How it was run: as §2

[16] = 62 g ai/ha, scale 0 to 100 (0 no effect, 100 complete control)
[17] = 125 g ai/ha, scale 0 to 100 (0 no effect, 100 complete control)

N#Cc1cccc(Oc2ncc(Cl)cn2)c1CCCCC(F)(F)F [Compound 73, 3-[(5-chloro-2-pyrimidinyl)oxy]-2-(5,5,5-trifluoropentyl)benzonitrile]
pest or weed control at 125 g/ha ([1]; 125 g ai/ha): 100% | pest or weed control at 500 g/ha ([1]; 500 g ai/ha): 100% | pest or weed control at 125 g/ha (kochia (Kochia scoparia) [2]; 125 g ai/ha): 100% | pest or weed control at 500 g/ha (kochia (Kochia scoparia) [2]; 500 g ai/ha): 100% | pest or weed control at 16 g/ha ([3]; 16 g ai/ha, scale 0 to 100): 10% | pest or weed control at 31 g/ha ([3]; 31 g ai/ha, scale 0 to 100): 15% | pest or weed control at 62 g/ha [3, 16]: 20% | pest or weed control at 125 g/ha [3, 17]: 30% | pest or weed control at 16 g/ha ([4]; 16 g ai/ha, scale 0 to 100): 10% | pest or weed control at 31 g/ha ([4]; 31 g ai/ha, scale 0 to 100): 5% | pest or weed control at 62 g/ha [4, 16]: 40% | pest or weed control at 125 g/ha [4, 17]: 35% | pest or weed control at 16 g/ha ([5]; 16 g ai/ha, scale 0 to 100): 80% | pest or weed control at 31 g/ha ([5]; 31 g ai/ha, scale 0 to 100): 80% | pest or weed control at 62 g/ha [5, 16]: 90% | pest or weed control at 125 g/ha [5, 17]: 85% | Corn plant response rating (crop injury, 0 = no effect, 100 = complete kill) at 16 g/ha (corn (Zea mays); 16 g ai/ha, scale 0 to 100): 10% | Corn plant response rating (crop injury, 0 = no effect, 100 = complete kill) at 31 g/ha (corn (Zea mays); 31 g ai/ha, scale 0 to 100): 20% | plant injury at 62 g/ha (corn (Zea mays); [16]): 15% | plant injury at 125 g/ha (corn (Zea mays); [17]): 15% | pest or weed control at 16 g/ha ([6]; 16 g ai/ha, scale 0 to 100): 15% | pest or weed control at 31 g/ha ([6]; 31 g ai/ha, scale 0 to 100): 10% | pest or weed control at 62 g/ha [6, 16]: 25% | pest or weed control at 125 g/ha [6, 17]: 60% | pest or weed control at 16 g/ha ([7]; 16 g ai/ha, scale 0 to 100): 15% | pest or weed control at 31 g/ha ([7]; 31 g ai/ha, scale 0 to 100): 25% | pest or weed control at 62 g/ha [7, 16]: 20% | pest or weed control at 125 g/ha [7, 17]: 25% | pest or weed control at 16 g/ha (kochia (Kochia scoparia) [8]; 16 g ai/ha, scale 0 to 100): 98% | pest or weed control at 31 g/ha (kochia (Kochia scoparia) [8]; 31 g ai/ha, scale 0 to 100): 100% | pest or weed control at 62 g/ha (kochia (Kochia scoparia) [8]; [16]): 100% | pest or weed control at 125 g/ha (kochia (Kochia scoparia) [8]; [17]): 100% | pest or weed control at 16 g/ha ([9]; 16 g ai/ha, scale 0 to 100): 75% | pest or weed control at 31 g/ha ([9]; 31 g ai/ha, scale 0 to 100): 80% | pest or weed control at 62 g/ha [9, 16]: 90% | pest or weed control at 125 g/ha [9, 17]: 98% | pest or weed control at 16 g/ha ([10]; 16 g ai/ha, scale 0 to 100): 70% | pest or weed control at 31 g/ha ([10]; 31 g ai/ha, scale 0 to 100): 75% | pest or weed control at 62 g/ha [10, 16]: 85% | pest or weed control at 125 g/ha [10, 17]: 75% | pest or weed control at 16 g/ha ([11]; 16 g ai/ha, scale 0 to 100): 5% | pest or weed control at 31 g/ha ([11]; 31 g ai/ha, scale 0 to 100): 15% | pest or weed control at 62 g/ha [11, 16]: 20% | pest or weed control at 125 g/ha [11, 17]: 30% | pest or weed control at 16 g/ha ([12]; 16 g ai/ha, scale 0 to 100): 5% | pest or weed control at 31 g/ha ([12]; 31 g ai/ha, scale 0 to 100): 5% | pest or weed control at 62 g/ha [12, 16]: 5% | pest or weed control at 125 g/ha [12, 17]: 10% | plant injury at 16 g/ha ([13]; 16 g ai/ha, scale 0 to 100): 5% | plant injury at 31 g/ha ([13]; 31 g ai/ha, scale 0 to 100): 80% | plant injury at 62 g/ha [13, 16]: 98% | plant injury at 125 g/ha [13, 17]: 50% | pest or weed control at 16 g/ha ([14]; 16 g ai/ha, scale 0 to 100): 5% | pest or weed control at 31 g/ha ([14]; 31 g ai/ha, scale 0 to 100): 5% | pest or weed control at 62 g/ha [14, 16]: 10% | pest or weed control at 125 g/ha [14, 17]: 20% | plant injury at 16 g/ha (soybean (Glycine max); 16 g ai/ha, scale 0 to 100): 45% | plant injury at 31 g/ha (soybean (Glycine max); 31 g ai/ha, scale 0 to 100): 70% | plant injury at 62 g/ha (soybean (Glycine max); [16]): 75% | plant injury at 125 g/ha (soybean (Glycine max); [17]): 60% | plant injury at 16 g/ha ([15]; 16 g ai/ha, scale 0 to 100): 0% | plant injury at 31 g/ha ([15]; 31 g ai/ha, scale 0 to 100): 5% | plant injury at 62 g/ha ([15]; 62 g ai/ha, scale 0 to 100 (0 no effect, 100 complete control), read-out: Wheat plant response rating): 5% | plant injury at 125 g/ha [15, 17]: 5%
